The experiment deals with 349418-098-R-PDC spheroids, viability, % test/control. Briefly: Anticancer human tumor 349418-098-R-PDC patient-derived lung adenocarcinoma cell line growth inhibition [IpAb]. The note with it: spheroids with HUVEC and MSC; for viability, T/C: stronger effect = lower value. In outline: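 Combinations with ipatasertib or abemaciclib were tested on tumour spheroids holding HUVEC (25%) and MSC (15%) alongside 60% malignant cells. Top concentration was at or near clinical Cmax (10 microM if undefined), descending in half-log steps.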

The mark [1] stands for this setting: curve of first compound, second compound 0.1 µM.
[2] abbreviates: curve of first compound, second compound 0.316 µM.
Setting [3] is: curve of first compound, second compound 1 µM.
[4] abbreviates: second compound 0.1 µM, first compound 0.0316 µM.
[5] abbreviates: second compound 0.1 µM, first compound 0.1 µM.
[6] abbreviates: second compound 0.1 µM, first compound 0.316 µM.
The mark [7] stands for this setting: second compound 0.1 µM, first compound 1 µM.
[8] abbreviates: second compound 0.1 µM, first compound 3.16 µM.
[9] abbreviates: second compound 0.1 µM, first compound 10 µM.
Where [10] appears, read: second compound 0.316 µM, first compound 0.0316 µM.
[11] abbreviates: second compound 0.316 µM, first compound 0.1 µM.
[12] abbreviates: second compound 0.316 µM, first compound 0.316 µM.
Where [13] appears, read: second compound 0.316 µM, first compound 1 µM.
The mark [14] stands for this setting: second compound 0.316 µM, first compound 3.16 µM.
Setting [15] is: second compound 0.316 µM, first compound 10 µM.
The mark [16] stands for this setting: second compound 1 µM, first compound 0.0316 µM.
Where [17] appears, read: second compound 1 µM, first compound 0.1 µM.
[18] abbreviates: second compound 1 µM, first compound 0.316 µM.
Where [19] appears, read: second compound 1 µM, first compound 1 µM.
Where [20] appears, read: second compound 1 µM, first compound 3.16 µM.
Setting [21] is: second compound 1 µM, first compound 10 µM.

This note sets out measurements from PubChem BioAssay AID2060340 (Molecular Pharmacology Branch, DTP, NCI, 2025).

By IC50 is commonly meant the midpoint of a concentration-inhibition curve. Broadly, the viability, T/C is the ratio of treated to control.

Values joined by “and” are separate entries in the source; they are usually repeats but may differ in a detail not shown here. Equal values may be shown once.
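Also: spheroids exposed to compounds for 7 days.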

Regarding `Cc1nc(NC(=O)N2CCCC2C(N)=O)sc1-c1ccnc(C(C)(C)C(F)(F)F)c1` (centres undefined) + CC(C)NCC(C(=O)N1CCN(c2ncnc3c2C(C)CC3O)CC1)c1ccc(Cl)cc1, the IC50 runs as follows: under setting [1], 117 nM; under setting [2], below 31.6 nM; under setting [3], below 31.6 nM; (curve of first compound, second compound 3.16 µM) below 31.6 nM; (curve of first compound, second compound 10 µM) below 31.6 nM. The viability, T/C is 75.5% under setting [4]; 52.5% under setting [5]; 31.8% under setting [6]; 16.8% under setting [7]; 14.2% under setting [8]; 12.7% under setting [9]. Also, the viability, T/C reads like this: under setting [10], 40.3%; under setting [11], 33.8%; under setting [12], 24.9%; under setting [13], 12.6%; under setting [14], 13.7%; under setting [15], 9.57%. The viability, T/C by setting is: under setting [16], 21.9%; under setting [17], 16.2%; under setting [18], 13.6%; under setting [19], 11%; under setting [20], 10.2%; under setting [21], 8.68%. Besides, the viability, T/C is 11.4% (second compound 3.16 µM, first compound 0.0316 µM); 9.53% (second compound 3.16 µM, first compound 0.1 µM); 9.54% (second compound 3.16 µM, first compound 0.316 µM); 7.39% (second compound 3.16 µM, first compound 1 µM); 7.95% (second compound 3.16 µM, first compound 3.16 µM); 7.62% (second compound 3.16 µM, first compound 10 µM). The viability, T/C is 8.29% (second compound 10 µM, first compound 0.0316 µM); 7.93% (second compound 10 µM, first compound 0.1 µM); 7.48% (second compound 10 µM, first compound 0.316 µM); 6.51% (second compound 10 µM, first compound 1 µM); 6.55% (second compound 10 µM, first compound 3.16 µM); 5.85% (second compound 10 µM, first compound 10 µM).

With `C=CC(=O)N1CCN(c2nc(=O)n(-c3c(C)ccnc3C(C)C)c3nc(-c4c(O)cccc4F)c(F)cc23)C(C)C1` (centres undefined), the viability, T/C was 109% and 107% (compound 0.0316 µM); 107% and 104% (compound 0.1 µM); 105% and 94.1% (compound 0.316 µM); 102% and 96.4% (compound 1 µM); 72.9% and 76.2% (compound 3.16 µM); 48.9% and 38% (compound 10 µM). Moreover, the IC50 (curve of compound) was 9460 nM and 7010 nM.

For the compound `Cn1ncnc1[C@H]1c2n[nH]c(=O)c3cc(F)cc(c23)N[C@@H]1c1ccc(F)cc1`, the viability, T/C is, setting by setting: (compound 0.000316 µM) 96.5% and 98.7%; (compound 0.001 µM) 100% and 99.5%; (compound 0.00316 µM) 94.5% and 104%; (compound 0.01 µM) 94.8% and 100%; (compound 0.0316 µM) 83.4% and 81.5%; (compound 0.1 µM) 75.5% and 78.4%. Besides, the IC50 (curve of compound) is above 100 nM.

For the compound `Cc1nc(NC(=O)N2CCCC2C(N)=O)sc1-c1ccnc(C(C)(C)C(F)(F)F)c1` (centres undefined), the viability, T/C (compound 0.0316 µM) was 87.3% and 95.4%; the viability, T/C (compound 0.1 µM) is 81.1% and 75.3%; the viability, T/C (compound 0.316 µM) is 46.4% and 43.7%; the viability, T/C (compound 1 µM) was 18.9% and 22.8%; the viability, T/C (compound 3.16 µM) was 14% and 15.1%; the viability, T/C (compound 10 µM) is 11.2% and 14.1%. In addition, for the setting “curve of compound”, the half-inhibitory concentration (IC50) was 284 nM and 251 nM.

In the case of `Cc1nc(NC(=O)N2CCCC2C(N)=O)sc1-c1ccnc(C(C)(C)C(F)(F)F)c1` (centres undefined) + CCN1CCN(Cc2ccc(Nc3ncc(F)c(-c4cc(F)c5nc(C)n(C(C)C)c5c4)n3)nc2)CC1, the IC50 by setting is: (curve of first compound, second compound 0.01 µM) 47.5 nM; (curve of first compound, second compound 0.0316 µM) below 31.6 nM; under setting [1], below 31.6 nM; under setting [2], below 31.6 nM; under setting [3], below 31.6 nM. The viability, T/C reads like this: (second compound 0.01 µM, first compound 0.0316 µM) 59.8%; (second compound 0.01 µM, first compound 0.1 µM) 32.7%; (second compound 0.01 µM, first compound 0.316 µM) 17.9%; (second compound 0.01 µM, first compound 1 µM) 14.1%; (second compound 0.01 µM, first compound 3.16 µM) 10.2%; (second compound 0.01 µM, first compound 10 µM) 8.7%. Further, the viability, T/C is 40.5% (second compound 0.0316 µM, first compound 0.0316 µM); 27.1% (second compound 0.0316 µM, first compound 0.1 µM); 12.1% (second compound 0.0316 µM, first compound 0.316 µM); 7.43% (second compound 0.0316 µM, first compound 1 µM); 7.43% (second compound 0.0316 µM, first compound 3.16 µM); 8.13% (second compound 0.0316 µM, first compound 10 µM). Moreover, the viability, T/C under setting [4] was 20.3%; the viability, T/C under setting [5] was 13.9%; the viability, T/C under setting [6] is 9.49%; the viability, T/C under setting [7] is 7.63%; the viability, T/C under setting [8] was 7.46%; the viability, T/C under setting [9] was 7.65%. The viability, T/C under setting [10] is 15.9%; the viability, T/C under setting [11] is 12.6%; the viability, T/C under setting [12] was 9.79%; the viability, T/C under setting [13] is 8.43%; the viability, T/C under setting [14] is 9%; the viability, T/C under setting [15] is 7.65%. Besides, the viability, T/C under setting [16] is 12.8%; the viability, T/C under setting [17] was 11.4%; the viability, T/C under setting [18] was 9.14%; the viability, T/C under setting [19] is 7.42%; the viability, T/C under setting [20] was 7.89%; the viability, T/C under setting [21] is 6.94%.

Consider `C=CCn1c(=O)c2cnc(Nc3ccc(N4CCN(C)CC4)cc3)nc2n1-c1cccc(C(C)(C)O)n1`, for which the viability, T/C by setting is: (compound 0.0316 µM) 91.8% and 105%; (compound 0.1 µM) 84.5% and 88.7%; (compound 0.316 µM) 18.8% and 26.7%; (compound 1 µM) 5.04% and 4.87%; (compound 3.16 µM) 4.87% and 4.84%; (compound 10 µM) 6.19% and 4.54%. The IC50 (curve of compound) was 183 nM and 205 nM.

Turning to `Cn1cnc2c(F)c(Nc3ccc(Br)cc3Cl)c(C(=O)NOCCO)cc21`, the viability, T/C reads like this: (compound 0.00949 µM) 54.9% and 51.1%; (compound 0.03 µM) 47.6% and 37.5%; (compound 0.0949 µM) 49.2% and 43%; (compound 0.3 µM) 58.2% and 42.2%; (compound 0.949 µM) 37.5% and 27.2%; (compound 3 µM) 12.6% and 11.1%.
